According to US12139492B2 (Endotarget Inc., priority 2021, dated 2024):

What was measured:
BTK = BTK (Homo sapiens, UniProt Q06187); assay: Degradation of BTK protein in Namalwa cells (Western blot; DC50, Dmax); conditions: for DC50: read-out: DC50 (BTK degradation), concentration giving 50% reduction of BTK expression level, cell line not given; for Dmax: read-out: Dmax (BTK degradation); for degradation of BTK protein: Namalwa B lymphocyte cells, various concentrations, 24 hours, Western blot
JeKo-1 cells = assay: Antiproliferative effect, MTS cell viability assay, JeKo-1 cells; type: cell-based; conditions: Homo sapiens; JeKo-1 mantle cell lymphoma cells; read-out: IC50 (anti-proliferation) JeKO-1 cells
Procedure, shortened: (§1)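 Cells were exposed to compound at 0, 0.001, 0.01, 0.1, 1 and 10 μM for 72 h. Viability was then measured by MTS assay, reading formazan produced by metabolically active cells as absorbance at 490 nm.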

Mino cells = assay: Antiproliferative effect, MTS cell viability assay, Mino cells; type: cell-based; conditions: Homo sapiens, MINO, Mino mantle cell lymphoma cells; read-out: IC50 (anti-proliferation) Mino cells
Procedure, shortened: as §1

BTK, sequence (Q06187 whole entry): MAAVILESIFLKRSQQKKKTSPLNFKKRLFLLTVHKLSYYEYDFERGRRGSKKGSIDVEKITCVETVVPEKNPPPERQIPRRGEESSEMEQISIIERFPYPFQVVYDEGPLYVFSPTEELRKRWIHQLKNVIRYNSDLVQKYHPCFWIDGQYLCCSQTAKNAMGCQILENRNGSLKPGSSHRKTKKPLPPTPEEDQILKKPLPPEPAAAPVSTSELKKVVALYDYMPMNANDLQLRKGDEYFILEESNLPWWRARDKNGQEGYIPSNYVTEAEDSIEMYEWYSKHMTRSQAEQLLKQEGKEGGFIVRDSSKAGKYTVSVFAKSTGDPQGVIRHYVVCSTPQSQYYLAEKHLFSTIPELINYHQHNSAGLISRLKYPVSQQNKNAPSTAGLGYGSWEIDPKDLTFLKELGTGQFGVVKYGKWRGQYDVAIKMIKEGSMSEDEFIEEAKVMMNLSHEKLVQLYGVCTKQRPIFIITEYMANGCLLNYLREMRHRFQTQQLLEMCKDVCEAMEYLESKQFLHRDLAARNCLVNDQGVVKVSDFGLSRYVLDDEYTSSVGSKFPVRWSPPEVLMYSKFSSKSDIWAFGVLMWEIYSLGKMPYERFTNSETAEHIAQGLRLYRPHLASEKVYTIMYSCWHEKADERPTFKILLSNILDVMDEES

DC50 (BTK)	Dmax (BTK)	degradation of BTK protein (BTK)	SMILES	IC50 (JeKo-1 cells)	IC50 (Mino cells)
10 to 50 nM	> 90%	–	Nc1ncnc2c1c(-c1ccc(Oc3ccccc3)cc1)nn2C1CCN(CC2CCN(CC3CCN(CC4CN(c5ccc6c(c5)CN(C5CCC(=O)NC5=O)C6=O)C4)CC3)CC2)CC1 (stereo not drawn) [Compound 432, 3-(5-(3-((4-((4-((4-(4-amino-3-(4-phenoxyphenyl)-1H-pyrazolo[3,4-d]pyrimidin-1-yl)piperidin-1-yl)methyl)piperidin-1-yl)methyl)piperidin-1-yl)methyl)azetidin-1-yl)-1-oxoisindolin-2-yl)piperidine-2,6-dione]	< 1000 nM	< 1000 nM
> 50 nM	> 90%	dose-dependent degradation	Nc1ncnc2c1c(-c1ccc(Oc3ccccc3)cc1)nn2C1CCN(C2CCN(CC3CN(c4ccc5c(c4)C(=O)N(C4CCC(=O)NC4=O)C5=O)C3)CC2)CC1 (stereo not drawn) [Compound 433, 5-(3-((4-(4-amino-3-(4-phenoxyphenyl)-1H-pyrazolo(3,4-d)pyrimidin-1-yl)-(1,4′-bipiperidin)-1′-yl)methyl)azetidin-1-yl)-2-(2,6-dioxopiperidin-3-yl)isoindoline-1,3-dione]	1000 to 10000 nM	< 1000 nM
10 to 50 nM	> 90%	–	Nc1ncnc2c1c(-c1ccc(Oc3ccccc3)cc1)nn2C1CCN(C2CCN(CC3CN(c4ccc5c(c4)CN(C4CCC(=O)NC4=O)C5=O)C3)CC2)CC1 (stereo not drawn) [Compound 434, 3-(5-(3-((4-(4-amino-3-(4-phenoxyphenyl)-1H-pyrazolo[3,4-d]pyrimidin-1-yl)-[1,4′-bipiperidin]-1′-yl)methyl)azetidin-1-yl)-1-oxoisoindolin-2-yl)piperidine-2,6-dione]	1000 to 10000 nM	< 1000 nM
< 10 nM	> 90%	dose-dependent degradation	Nc1ncnc2c1c(-c1ccc(Oc3ccccc3)cc1)nn2C1CCN(C2CCN(CC3CCN(CC4CN(c5ccc6c(c5)C(=O)N(C5CCC(=O)NC5=O)C6=O)C4)CC3)CC2)CC1 (stereo not drawn) [Compound 435, 5-(3-((4-((4-(4-amino-3-(4-phenoxyphenyl)-1H-pyrazolo[3,4-d]pyrimidin-1-yl)-[1,4′-bipiperidin]-1′-yl)methyl)piperidin-1-yl)methyl)azetidin-1-yl)-2-(2,6-dioxopiperidin-3-yl)isoindoline-1,3-dione]	1000 to 10000 nM	< 1000 nM
< 10 nM	> 90%	–	Nc1ncnc2c1c(-c1ccc(Oc3ccccc3)cc1)nn2C1CCN(C2CCN(CC3CCN(CC4CN(c5ccc6c(c5)CN(C5CCC(=O)NC5=O)C6=O)C4)CC3)CC2)CC1 (stereo not drawn) [Compound 436, 3-(5-(3-((4-((4-(4-amino-3-(4-phenoxyphenyl)-1H-pyrazolo[3,4-d]pyrimidin-1-yl)-[1,4′-bipiperidin]-1′-yl)methyl)piperidin-1-yl)methyl)azetidin-1-yl)-1-oxoisoindolin-2-yl)piperidine-2,6-dione]	1000 to 10000 nM	< 1000 nM
10 to 50 nM	> 90%	dose-dependent degradation	Nc1ncnc2c1c(-c1ccc(Oc3ccccc3)cc1)nn2C1CCN(C2CCN(CC3CN(CC4CN(c5ccc6c(c5)C(=O)N(C5CCC(=O)NC5=O)C6=O)C4)C3)CC2)CC1 (stereo not drawn) [Compound 437]	1000 to 10000 nM	1000 to 10000 nM
10 to 50 nM	> 90%	–	Nc1ncnc2c1c(-c1ccc(Oc3ccccc3)cc1)nn2C1CCN(C2CCN(CC3CN(CC4CN(c5ccc6c(c5)CN(C5CCC(=O)NC5=O)C6=O)C4)C3)CC2)CC1 (stereo not drawn) [Compound 438, 3-(5-(3-((3-((4-(4-amino-3-(4-phenoxyphenyl)-1H-pyrazolo[3,4-d]pyrimidin-1-yl)-[1,4′-bipiperidin]-1′-yl)methyl)azetidin-1-yl)methyl)azetidin-1-yl)-1-oxoisoindolin-2-yl)piperidin-2,6-dione]	1000 to 10000 nM	1000 to 10000 nM
< 10 nM	> 90%	–	Nc1ncnc2c1c(-c1ccc(Oc3ccccc3)cc1)nn2C1CCN(CC2CN(CC3CCN(c4ccc5c(c4)CN(C4CCC(=O)NC4=O)C5=O)CC3)C2)CC1 (stereo not drawn) [Compound 440]	1000 to 10000 nM	< 1000 nM
–	< 50%	dose-dependent degradation	Nc1ncnc2c1c(-c1ccc(Oc3ccccc3)cc1)nn2C1CCN(CC2CN(CC3CN(c4ccc5c(c4)C(=O)N(C4CCC(=O)NC4=O)C5=O)C3)C2)CC1 (stereo not drawn) [Compound 441, 5-(3-((3-((4-(4-amino-3-(4-phenoxyphenyl)-1H-pyrazolo(3,4-d)pyrimidin-1-yl)piperidin-1-yl)methyl)azetidin-1-yl)methyl)azetidin-1-yl)-2-(2,6-dioxopiperidin-3-yl)isoindoline-1,3-dione]	> 10000 nM	> 10000 nM
–	< 50%	–	Nc1ncnc2c1c(-c1ccc(Oc3ccccc3)cc1)nn2C1CCN(CC2CN(CC3CN(c4ccc5c(c4)CN(C4CCC(=O)NC4=O)C5=O)C3)C2)CC1 (stereo not drawn) [Compound 442, 3-(5-(3-((3-((4-(4-amino-3-(4-phenoxyphenyl)-1H-pyrazolo[3,4-d]pyrimidin-1-yl)piperidin-1-yl)methyl)azetidin-1-yl)methyl)azetidin-1-yl)-1-oxoisoindolin-2-yl)piperidine-2,6-dione]	> 10000 nM	> 10000 nM
< 10 nM	> 90%	dose-dependent degradation	Nc1ncnc2c1c(-c1ccc(Oc3ccccc3)cc1)nn2C1CCN(CC2CN(CC3CCN(c4ccc5c(c4)C(=O)N(C4CCC(=O)NC4=O)C5=O)C3)C2)CC1 (stereo not drawn) [Compound 443, 5-(3-((3-((4-(4-amino-3-(4-phenoxyphenyl)-1H-pyrazolo(3,4-d)pyrimidin-1-yl)piperidin-1-yl)methyl)azetidin-1-yl)methyl)pyrrolidin-1-yl)-2-(2,6-dioxopiperidin-3-yl)isoindoline-1,3-dione]	< 1000 nM	< 1000 nM
< 10 nM	> 90%	–	Nc1ncnc2c1c(-c1ccc(Oc3ccccc3)cc1)nn2C1CCN(CC2CN(C[C@H]3CCN(c4ccc5c(c4)C(=O)N(C4CCC(=O)NC4=O)C5=O)C3)C2)CC1 (stereo partly drawn) [Compound 443a, 5-((R)-3-((3-((4-(4-amino-3-(4-phenoxyphenyl)-1H-pyrazolo[3,4-d]pyrimidin-1-yl)piperidin-1-yl)methyl)azetidin-1-yl)methyl)pyrrolidin-1-yl)-2-(2,6-dioxopiperidin-3-yl)isoindoline-1,3-dione]	< 1000 nM	< 1000 nM
< 10 nM	> 90%	–	Nc1ncnc2c1c(-c1ccc(Oc3ccccc3)cc1)nn2C1CCN(CC2CN(C[C@@H]3CCN(c4ccc5c(c4)C(=O)N(C4CCC(=O)NC4=O)C5=O)C3)C2)CC1 (stereo partly drawn) [Compound 443b, 5-((S)-3-((3-((4-(4-amino-3-(4-phenoxyphenyl)-1H-pyrazolo[3,4-d]pyrimidin-1-yl)piperidin-1-yl)methyl)azetidin-1-yl)methyl)pyrrolidin-1-yl)-2-(2,6-dioxopiperidin-3-yl)isoindoline-1,3-dione]	< 1000 nM	< 1000 nM
< 10 nM	> 90%	–	Nc1ncnc2c1c(-c1ccc(Oc3ccccc3)cc1)nn2C1CCN(CC2CN(CC3CCN(c4ccc5c(c4)CN(C4CCC(=O)NC4=O)C5=O)C3)C2)CC1 (stereo not drawn) [Compound 444, 3-(5-(3-((3-((4-(4-amino-3-(4-phenoxyphenyl)-1H-pyrazolo[3,4-d]pyrimidin-1-yl)piperidin-1-yl)methyl)azetidin-1-yl)methyl)pyrrolidin-1-yl)-1-oxoisoindolin-2-yl)piperidine-2,6-dione]	< 1000 nM	< 1000 nM
10 to 50 nM	> 90%	dose-dependent degradation	Nc1ncnc2c1c(-c1ccc(Oc3ccccc3)cc1)nn2C1CCN(CC2CCN(CC3CCN(c4ccc5c(c4)C(=O)N(C4CCC(=O)NC4=O)C5=O)CC3)C2)CC1 (stereo not drawn) [Compound 445, 5-(4-((3-((4-(4-amino-3-(4-phenoxyphenyl)-1H-pyrazolo(3,4-d)pyrimidin-1-yl)piperidin-1-yl)methyl)pyrrolidin-1-yl)methyl)piperidin-1-yl)-2-(2,6-dioxopiperidin-3-yl)isoindoline-1,3-dione]	1000 to 10000 nM	1000 to 10000 nM
10 to 50 nM	> 90%	–	Nc1ncnc2c1c(-c1ccc(Oc3ccccc3)cc1)nn2C1CCN(C[C@H]2CCN(CC3CCN(c4ccc5c(c4)C(=O)N(C4CCC(=O)NC4=O)C5=O)CC3)C2)CC1 (stereo partly drawn) [Compound 445a, 5-(4-(((R)-3-((4-(4-amino-3-(4-phenoxyphenyl)-1H-pyrazolo[3,4-d]pyrimidin-1-yl)piperidin-1-yl)methyl)pyrrolidin-1-yl)methyl)piperidin-1-yl)-2-(2,6-dioxopiperidin-3-yl)isoindoline-1,3-dione]	1000 to 10000 nM	1000 to 10000 nM
10 to 50 nM	> 90%	–	Nc1ncnc2c1c(-c1ccc(Oc3ccccc3)cc1)nn2C1CCN(C[C@@H]2CCN(CC3CCN(c4ccc5c(c4)C(=O)N(C4CCC(=O)NC4=O)C5=O)CC3)C2)CC1 (stereo partly drawn) [Compound 445b, 5-(4-(((S)-3-((4-(4-amino-3-(4-phenoxyphenyl)-1H-pyrazolo[3,4-d]pyrimidin-1-yl)piperidin-1-yl)methyl)pyrrolidin-1-yl)methyl)piperidin-1-yl)-2-(2,6-dioxopiperidin-3-yl)isoindoline-1,3-dione]	1000 to 10000 nM	1000 to 10000 nM
